From ChEMBL document CHEMBL2424640, “Dihydrothiazolopyridone derivatives as a novel family of positive allosteric modulators of the metabotropic glutamate 5 (mGlu5) receptor” (J Med Chem, 2013) come the findings set out here.

Test [1] has as its target Metabotropic glutamate receptor 8 (Homo sapiens, UniProt O00222).
Description: Positive allosteric modulation of human mGlu8 receptor expressed in HEK293 cells by fluorescent Ca2+ assay
Test [2] has as its target Metabotropic glutamate receptor 7 (Homo sapiens, UniProt Q14831).
Description: Positive allosteric modulation of human mGlu7 receptor expressed in HEK293 cells by fluorescent Ca2+ assay
The target of test [3] is Metabotropic glutamate receptor 6 (Rattus norvegicus, UniProt P35349).
Description: Positive allosteric modulation of rat mGlu6 receptor expressed in CHO cells by [35S]-GTPgammaS binding assay
The target of test [4] is Metabotropic glutamate receptor 3 (Homo sapiens, UniProt Q14832).
Description: Positive allosteric modulation of human mGlu3 receptor expressed in HEK293 cells by fluorescent Ca2+ assay
The target of test [5] is Metabotropic glutamate receptor 2 (Homo sapiens, UniProt Q14416).
Description: Positive allosteric modulation of human mGlu2 receptor expressed in HEK293 cells by fluorescent Ca2+ assay
For test [6], the target named is Metabotropic glutamate receptor 1 (Homo sapiens, UniProt Q13255).
Description: Positive allosteric modulation of human mGlu1 receptor expressed in HEK293 cells by fluorescent Ca2+ assay
Test [7] concerns the target Metabotropic glutamate receptor 5 (Homo sapiens, UniProt P41594).
Description: Positive allosteric modulation of human mGluR5a transfected in HEK293 cells by calcium mobilization assay
The target in test [8] is Metabotropic glutamate receptor 4 (Homo sapiens, UniProt Q14833).
Description: Positive allosteric modulation of human mGlu4 receptor expressed in HEK293 cells by fluorescent Ca2+ assay

Sequence of Metabotropic glutamate receptor 7 (Q14831 whole entry): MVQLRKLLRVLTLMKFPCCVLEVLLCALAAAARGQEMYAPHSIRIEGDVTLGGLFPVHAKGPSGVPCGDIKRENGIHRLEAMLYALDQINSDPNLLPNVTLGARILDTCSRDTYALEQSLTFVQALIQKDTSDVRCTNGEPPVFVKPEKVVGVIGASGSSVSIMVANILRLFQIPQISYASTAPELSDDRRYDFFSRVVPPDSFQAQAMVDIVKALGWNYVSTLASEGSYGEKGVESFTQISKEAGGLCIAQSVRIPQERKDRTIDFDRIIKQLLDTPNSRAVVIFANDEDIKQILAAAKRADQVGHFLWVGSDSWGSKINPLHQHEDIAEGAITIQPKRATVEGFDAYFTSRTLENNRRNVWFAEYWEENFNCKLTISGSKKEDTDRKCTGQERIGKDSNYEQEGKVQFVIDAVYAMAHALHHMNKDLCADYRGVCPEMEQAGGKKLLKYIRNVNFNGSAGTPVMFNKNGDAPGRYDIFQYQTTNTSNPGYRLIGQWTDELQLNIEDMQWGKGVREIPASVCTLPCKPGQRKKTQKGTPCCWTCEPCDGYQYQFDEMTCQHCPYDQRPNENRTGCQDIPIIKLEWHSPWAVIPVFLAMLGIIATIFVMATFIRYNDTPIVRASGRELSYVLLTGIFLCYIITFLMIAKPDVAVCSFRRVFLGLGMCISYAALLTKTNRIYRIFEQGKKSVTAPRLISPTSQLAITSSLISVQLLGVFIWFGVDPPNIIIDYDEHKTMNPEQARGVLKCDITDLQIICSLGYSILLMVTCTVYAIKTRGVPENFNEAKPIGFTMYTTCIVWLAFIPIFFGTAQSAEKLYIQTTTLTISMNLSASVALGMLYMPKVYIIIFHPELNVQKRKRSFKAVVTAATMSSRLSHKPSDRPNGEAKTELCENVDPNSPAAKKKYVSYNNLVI
Sequence of Metabotropic glutamate receptor 6 (P35349 whole entry): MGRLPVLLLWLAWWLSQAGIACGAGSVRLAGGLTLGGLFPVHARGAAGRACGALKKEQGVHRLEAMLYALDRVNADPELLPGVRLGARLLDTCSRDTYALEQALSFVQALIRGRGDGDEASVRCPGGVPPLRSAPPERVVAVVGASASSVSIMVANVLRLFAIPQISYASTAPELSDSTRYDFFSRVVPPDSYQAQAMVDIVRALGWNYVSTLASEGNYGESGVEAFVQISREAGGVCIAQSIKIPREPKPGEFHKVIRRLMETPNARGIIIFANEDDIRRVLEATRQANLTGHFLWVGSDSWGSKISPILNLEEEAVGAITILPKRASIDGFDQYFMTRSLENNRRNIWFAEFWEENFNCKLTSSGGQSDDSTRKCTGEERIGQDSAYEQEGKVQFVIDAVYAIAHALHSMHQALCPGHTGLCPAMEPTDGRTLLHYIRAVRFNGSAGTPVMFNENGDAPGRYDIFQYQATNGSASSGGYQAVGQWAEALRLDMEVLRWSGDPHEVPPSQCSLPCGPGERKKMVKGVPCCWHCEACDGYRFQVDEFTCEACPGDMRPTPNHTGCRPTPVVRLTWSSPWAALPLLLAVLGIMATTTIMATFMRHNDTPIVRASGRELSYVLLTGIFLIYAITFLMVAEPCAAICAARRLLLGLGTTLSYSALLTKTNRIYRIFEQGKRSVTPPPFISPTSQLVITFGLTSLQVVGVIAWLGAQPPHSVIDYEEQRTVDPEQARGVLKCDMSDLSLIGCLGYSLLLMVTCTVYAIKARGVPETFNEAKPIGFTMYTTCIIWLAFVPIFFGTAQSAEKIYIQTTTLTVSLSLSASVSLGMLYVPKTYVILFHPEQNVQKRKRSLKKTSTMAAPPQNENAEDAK
Sequence of Metabotropic glutamate receptor 2 (Q14416 whole entry): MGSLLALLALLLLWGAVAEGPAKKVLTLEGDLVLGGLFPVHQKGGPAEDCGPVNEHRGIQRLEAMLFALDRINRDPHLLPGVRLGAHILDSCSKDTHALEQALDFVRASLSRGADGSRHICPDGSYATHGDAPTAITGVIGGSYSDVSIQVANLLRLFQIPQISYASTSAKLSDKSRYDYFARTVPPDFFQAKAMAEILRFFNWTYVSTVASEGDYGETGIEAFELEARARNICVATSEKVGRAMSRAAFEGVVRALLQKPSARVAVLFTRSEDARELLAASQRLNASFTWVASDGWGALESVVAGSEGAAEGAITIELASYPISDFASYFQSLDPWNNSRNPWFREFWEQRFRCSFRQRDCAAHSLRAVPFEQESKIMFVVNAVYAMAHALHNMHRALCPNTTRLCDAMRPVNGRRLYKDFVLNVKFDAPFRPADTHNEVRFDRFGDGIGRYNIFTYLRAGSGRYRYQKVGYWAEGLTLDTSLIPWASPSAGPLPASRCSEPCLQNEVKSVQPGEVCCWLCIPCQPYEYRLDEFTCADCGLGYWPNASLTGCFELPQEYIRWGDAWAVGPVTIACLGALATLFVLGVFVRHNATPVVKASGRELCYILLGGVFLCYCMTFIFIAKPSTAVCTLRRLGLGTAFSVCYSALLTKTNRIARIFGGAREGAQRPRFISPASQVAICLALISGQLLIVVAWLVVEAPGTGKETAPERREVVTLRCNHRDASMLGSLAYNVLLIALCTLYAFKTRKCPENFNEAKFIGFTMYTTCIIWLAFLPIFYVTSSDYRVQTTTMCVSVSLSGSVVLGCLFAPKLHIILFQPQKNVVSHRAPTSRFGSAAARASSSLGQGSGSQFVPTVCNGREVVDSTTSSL
Sequence of Metabotropic glutamate receptor 3 (Q14832 whole entry): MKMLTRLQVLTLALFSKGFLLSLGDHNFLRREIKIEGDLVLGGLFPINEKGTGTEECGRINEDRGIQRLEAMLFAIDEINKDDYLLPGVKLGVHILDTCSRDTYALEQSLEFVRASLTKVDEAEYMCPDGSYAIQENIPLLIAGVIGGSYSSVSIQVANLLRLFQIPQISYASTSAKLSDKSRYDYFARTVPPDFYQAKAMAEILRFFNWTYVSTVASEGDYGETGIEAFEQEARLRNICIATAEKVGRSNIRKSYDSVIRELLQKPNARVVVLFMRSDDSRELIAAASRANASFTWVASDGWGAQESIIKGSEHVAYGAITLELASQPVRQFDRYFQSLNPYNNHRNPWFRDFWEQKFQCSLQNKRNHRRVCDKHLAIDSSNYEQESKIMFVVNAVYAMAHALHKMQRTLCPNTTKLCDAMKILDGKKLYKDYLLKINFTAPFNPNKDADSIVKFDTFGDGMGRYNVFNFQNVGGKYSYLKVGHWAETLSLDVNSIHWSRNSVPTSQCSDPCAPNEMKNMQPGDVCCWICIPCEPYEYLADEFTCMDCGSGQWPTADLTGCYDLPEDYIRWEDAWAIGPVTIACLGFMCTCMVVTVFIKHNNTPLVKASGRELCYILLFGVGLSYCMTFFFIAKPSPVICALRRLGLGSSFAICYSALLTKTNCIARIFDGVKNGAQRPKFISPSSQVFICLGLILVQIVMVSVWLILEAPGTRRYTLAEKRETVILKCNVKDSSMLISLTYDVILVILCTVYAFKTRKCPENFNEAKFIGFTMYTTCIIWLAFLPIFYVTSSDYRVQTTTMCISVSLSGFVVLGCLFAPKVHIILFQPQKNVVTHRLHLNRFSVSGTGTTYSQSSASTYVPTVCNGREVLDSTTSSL
Sequence of Metabotropic glutamate receptor 5 (P41594 whole entry): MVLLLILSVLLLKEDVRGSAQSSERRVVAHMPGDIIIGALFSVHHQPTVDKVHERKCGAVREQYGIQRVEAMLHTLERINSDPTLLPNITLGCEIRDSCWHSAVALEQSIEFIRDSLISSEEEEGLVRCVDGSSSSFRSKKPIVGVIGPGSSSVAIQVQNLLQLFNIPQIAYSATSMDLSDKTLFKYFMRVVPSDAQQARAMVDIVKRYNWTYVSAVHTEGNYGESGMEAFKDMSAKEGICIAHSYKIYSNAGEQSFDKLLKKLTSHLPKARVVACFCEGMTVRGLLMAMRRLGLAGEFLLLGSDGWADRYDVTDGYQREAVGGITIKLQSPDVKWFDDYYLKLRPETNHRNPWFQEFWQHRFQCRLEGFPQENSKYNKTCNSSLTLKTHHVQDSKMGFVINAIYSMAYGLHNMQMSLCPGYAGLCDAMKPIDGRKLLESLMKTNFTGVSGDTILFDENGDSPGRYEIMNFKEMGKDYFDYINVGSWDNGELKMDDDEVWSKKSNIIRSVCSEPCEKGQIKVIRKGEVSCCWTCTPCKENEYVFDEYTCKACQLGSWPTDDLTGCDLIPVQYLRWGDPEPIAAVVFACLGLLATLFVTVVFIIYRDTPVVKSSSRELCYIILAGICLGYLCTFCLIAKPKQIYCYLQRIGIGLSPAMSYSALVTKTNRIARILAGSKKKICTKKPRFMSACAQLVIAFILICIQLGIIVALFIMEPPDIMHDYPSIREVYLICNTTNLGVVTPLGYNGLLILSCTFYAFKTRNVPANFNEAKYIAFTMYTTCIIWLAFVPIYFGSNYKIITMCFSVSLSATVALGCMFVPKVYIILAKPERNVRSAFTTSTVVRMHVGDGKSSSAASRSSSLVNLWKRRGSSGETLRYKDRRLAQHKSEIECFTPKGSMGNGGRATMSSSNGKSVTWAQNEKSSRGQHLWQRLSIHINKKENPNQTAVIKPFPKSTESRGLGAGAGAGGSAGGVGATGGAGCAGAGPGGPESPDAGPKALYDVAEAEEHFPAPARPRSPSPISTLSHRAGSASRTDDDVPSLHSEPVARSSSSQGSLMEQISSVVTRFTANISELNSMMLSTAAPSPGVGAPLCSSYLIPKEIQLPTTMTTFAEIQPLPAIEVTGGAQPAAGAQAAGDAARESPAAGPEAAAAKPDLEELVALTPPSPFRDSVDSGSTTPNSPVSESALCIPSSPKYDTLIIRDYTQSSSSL

The EC50 is the concentration giving half of the maximal effect. Read a low EC50 as higher potency in that assay. Turning to `O=C1CCOc2cc(COc3ccccc3)ccc21`, the EC50 in test [1], in test [2], in test [3], in test [4], in test [5] and in test [6] was above 10000 nM throughout.
Consider `O=C1c2sc(COc3ccc(F)cc3)nc2CCN1c1ccc(F)cc1`, for which the 50% effective concentration (EC50) in test [7] worked out at 739 nM.
Same read-out and setting: under `O=C(c1ccc(F)cc1)N1CCC[C@H](c2nc(-c3ccc(F)cc3)no2)C1` stands 199 nM.
On the same count and under the same terms, under `O=C1CCc2cc(O)ccc2O1` stands above 10000 nM.
In test [7], `O=C1c2sc(OCc3ccccc3)nc2CCN1c1ccc(F)cc1` showed an EC50 of 1130 nM. That is a single-digit micromolar value.
The same measure, in the same setting: under `O=C1c2sc(COc3ccccc3)nc2CCN1c1ccc(F)cc1F` stands 66 nM.
The same measure, in the same setting: then `O=C1c2sc(COc3cccc(F)c3)nc2CCN1c1ccc(F)cc1`, with 77 nM.
On the same count and under the same terms, under `CN1CCc2nc(C#Cc3ccccc3)sc2C1=O` stands 193 nM; under `O=C1c2sc(COc3ccccc3)nc2CCN1c1ccccn1`, 1020 nM; under `O=C1c2sc(COc3ccccc3)nc2CCN1CC1CCOCC1`, 851 nM.
On to `O=C1c2sc(COc3ccccc3)nc2CCN1C1CC1`, for which, in test [7], the response was half-maximal at 1460 nM (EC50). Compared with the last compound, the EC50 is about 1.7-fold higher.
In the case of `O=C(O)c1ccccc1` [BENZOIC ACID], the 50% effective concentration (EC50) in test [7] was above 10000 nM.
Still for that read-out and setting: under `O=C1NCCc2nc(C#Cc3ccccc3)sc21` stands 123 nM.
Take `O=C1CCOc2cc(OCc3ccccc3)ccc21`: the EC50 in test [1], in test [2], in test [3], in test [4], in test [5] and in test [6] was above 10000 nM each time.
Compound `COCCN1CCc2nc(C#Cc3ccccc3)sc2C1=O` showed an EC50 in test [7] of 119 nM. This counts as sub-micromolar.
Still for that read-out and setting: then `COCCN1CCc2nc(COc3ccccc3)sc2C1=O`, with 2310 nM; and `O=C1c2sc(COc3ccccc3)nc2CCN1c1ccc(F)cc1`, with 96 nM; and `O=C1c2sc(COc3ccccc3)nc2CCN1c1cccnc1`, with 1760 nM.
Still for that read-out and setting: then `CC(C)N1CCc2nc(COc3ccccc3)sc2C1=O`, with 1210 nM.
For the compound `O=C1c2sc(COc3ccccc3)nc2CCN1CC1CC1`, in test [7], the midpoint of the response, the EC50, lay at 250 nM.
On the same count and under the same terms, then `O=C1c2sc(COc3ccccc3)nc2CCN1c1ccc(F)cn1`, with 621 nM; and `CN1CCc2nc(OCc3ccccc3)sc2C1=O`, with 1750 nM.
On the same count and under the same terms, then `O=C1c2sc(COc3ccccc3F)nc2CCN1c1ccc(F)cc1`, with 553 nM; and `O=C1c2sc(COc3ccccc3)nc2CCN1c1ncccc1F`, with 791 nM.
For the compound `O=C1CCCc2nc(C#Cc3ccccc3)sc21`, the concentration for a half-maximal effect (EC50) in test [1], in test [2], in test [3], in test [4], in test [8] and in test [5] was above 10000 nM throughout. Moreover, the values for the EC50 in test [6] and in test [7] were above 10000 nM and 33 nM, respectively.
